Data reported in US20140213557A1, “Active Compound Combinations” (Bayer CropScience AG, priority 2005, published 2014).
Values joined by “and” are separate entries in the source; they are usually repeats but may differ in a detail not shown here. Identical values can stand only once.

System: Phakopsora pachyrhizi
Experiment: Phakopsora test (soya bean)
Format: in vivo
Conditions: sprayed 1 day before inoculation, evaluation 11 days after inoculation
Procedure: The suitable active compound preparations used are commercial formulations which, if required, are diluted to the desired concentration prior to application.
Soya bean plants (cv. Miyagishirome) are cultivated in a plastic vessel having a diameter of 7.5 cm for 14 days, until they have reached the ⅔-leaf stage. The active compound preparations were, at the concentrations stated below, sprayed onto the test plants (6 ml for in each case 3 test vessels, the test solution contains 0.02% of Neoesterin as tackifier).
1 day after the application of the active compound preparation, the plants were sprayed with a urediniospore suspension (1×10^5 urediniospores/ml) of the rust pathogen Phakopsora pachyrhizi. The plants are then placed in a greenhouse at about 25° C. during the day and about 18° C. at night and a relative atmospheric humidity of 91.9%.
Evaluation is carried out 11 days after the inoculation by comparison of the infected areas of untreated and treated plants. 0% means an efficacy which corresponds to that of the control, whereas an efficacy of 100% means that no infection is observed.

Compound	Efficacy in % found (application rate 0.5 ppm)	Efficacy in % found (application rate 5 ppm) [%]
O=C(O)CNCP(=O)(O)O [(1-1) glyphosate, glyphosate]	0%	0
CC(C)(C)C(O)(CCc1ccc(Cl)cc1)Cn1cncn1 (centres unmarked) [(3-17) tebuconazole, tebuconazole]	60% and 50%	
CP(=O)(O)CCC(N)C(=O)O (centres unmarked) [(1-2) glufosinate, glufosinate]	0%	0
